Patent US6680054B1 (priority 1996, dated 2004)

Tests used:
influenza strain G70C = format: cell-based
[1] = system: NWS/G70C influenza A virus

Fetuin
Lowest Concentration (μM of GG167 units) that Inhibited Agglutination, G70C (influenza strain G70C): 0.73 µM

GG167-Bovine Serum Albumin-Biotin conjugate [Compound 3a]
amount of virus clearly detected [1]: 10^6 pfu
compound concentration giving the best result [1]: 0.1 µM
detection signal at higher concentrations of compound [1]: the signal was weaker
detection signal at lower concentrations [1]: the detection signal was also weaker
